Columns and labels:
Type in all cases: functional, cell-based
SK-MEL-28 = experiment: Cytotoxicity against human SK-MEL-28 cells after 3 days; conditions: SK-MEL-28, 72 h
HT-29 = experiment: Cytotoxicity against human HT-29 cells after 3 days; conditions: HT-29, 72 h
A549 = experiment: Cytotoxicity against human A549 cells after 3 days; conditions: A549, 72 h
P388 = experiment: Cytotoxicity against mouse P388 cells after 3 days; conditions: P388, 72 h

Measured: IC50

CCCCCCCCCCCCCC[C@@H]1OC[C@H](N)[C@@H]1O [PACHASTRISSAMINE]
0.01 µg/mL: all assays above
